Consider 44 molecules from patent publication US9580396B2, “C6-spiro iminothiadiazine dioxides as BACE inhibitors, compositions, and their use” (Merck Sharp & Dohme Corp., priority 2012, dated 2017).

For orientation: Ki means the equilibrium dissociation constant of an inhibitor or competing ligand from its target.

Assay [1] concerns the target soluble human BACE1 catalytic domain (Homo sapiens (Human), UniProt P56817). Nature of the assay: BACE1 HTRF FRET Assay. The assay is classed as biochemical. As to conditions: Ki calculated from IC50 using the Cheng-Prusoff equation; QSY7-APPswe-Eu substrate, pH 5.0. An excerpt:
Na^+-Acetate pH 5.0; 1% Brij-35; Glycerol; Dimethyl Sulfoxide (DMSO); Recombinant human soluble BACE1 catalytic domain (>95% pure); APP Swedish mutant peptide substrate (QSY7-APP^swe-Eu): QSY7-EISEVNLDAEFC-Europium-amide.
A homogeneous time-resolved FRET assay can be used to determine IC50 values for inhibitors of the soluble human BACE1 catalytic domain. This assay monitors the increase of 620 nm fluorescence that resulted from BACE1 cleavage of an APPswedish APP^swe mutant peptide FRET substrate (QSY7-EISEVNLDAEFC-Europium-amide). This substrate contains an N-terminal QSY7 moiety that serves as a quencher of the C-terminal Europium fluorophore (620 nm Em). In the absence of enzyme activity, 620 nm fluorescence is low in the assay and increased linearly over 3 hours in the presence of uninhibited BACE1 enzyme Inhibition of BACE1 cleavage of the QSY7-APP^swe-Eu substrate by inhibitors is manifested as a suppression of 620 nm fluorescence.
Varying concentrations of inhibitors at 3× the final desired concentration in a volume of 10 ul are preincubated with purified human BACE1 catalytic domain (3 nM in 10 μl) for 30 minutes at 30° C. in reaction buffer containing 20 mM Na-Acetate pH 5.0, 10% glycerol, 0.1% Brij-35 and 7.5% DSMO. Reactions are initiated by addition of 10 μl of 600 nM QSY7-APP^swe-Eu substrate (200 nM final) to give a final reaction volume of 30 μl in a 384 well Nunc HTRF plate. The reactions are incubated at 30° C. for 1.5 hours. The 620 nm fluorescence is then read on a Rubystar HTRF plate reader (BMG Labtechnologies) using a 50 millisecond delay followed by a 400 millisecond acquisition time window Inhibitor IC50 values are derived from non-linear regression analysis of concentration response curves. Ki values are then calculated from IC50 values using the Cheng-Prusoff equation using a previously determined […] of 8 μM for the QSY7-APP^swe-Eu substrate at BACE1.

For assay [2], the target named is purified human autoBACE-2 (Homo sapiens (Human), UniProt Q9Y5Z0). In words: BACE-2 Assay (BACE-HTRF assay). As to conditions: Ki calculated from IC50 using the Cheng-Prusoff equation; QSY7-EISEVNLDAEFC-Eu-amide substrate, pH 5.0; read-out: BACE2 Ki. The assay is classed as biochemical. Here is the method:
Inhibitor IC50s at purified human autoBACE-2 are determined in a time-resolved endpoint proteolysis assay that measures hydrolysis of the QSY7-[…]-Eu-amide FRET peptide substrate (BACE-HTRF assay). […] DMSO is present at 5% final concentration in the assay. Following laser excitation of sample wells at 320 nm, the fluorescence signal at 620 nm is collected for 400 ms following a 50 μs delay on a RUBYstar HTRF plate reader (BMG Labtechnologies). Raw RFU data is normalized to maximum (1.0 nM BACE/DMSO) and minimum (no enzyme/DMSO) RFU values. […] The Ki values are calculated from the IC50 using the Cheng-Prusoff equation.

soluble human BACE1 catalytic domain, sequence (P56817 75-416): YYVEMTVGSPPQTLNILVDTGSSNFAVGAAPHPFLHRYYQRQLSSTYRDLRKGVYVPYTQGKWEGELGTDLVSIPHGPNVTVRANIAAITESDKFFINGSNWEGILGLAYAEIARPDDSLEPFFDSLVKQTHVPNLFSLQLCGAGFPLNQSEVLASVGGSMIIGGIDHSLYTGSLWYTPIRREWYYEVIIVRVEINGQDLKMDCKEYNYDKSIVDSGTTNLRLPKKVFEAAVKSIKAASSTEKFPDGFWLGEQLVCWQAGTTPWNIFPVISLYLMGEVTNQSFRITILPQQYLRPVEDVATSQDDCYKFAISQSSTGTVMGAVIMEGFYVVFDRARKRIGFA
purified human autoBACE-2, sequence (Q9Y5Z0 63-473): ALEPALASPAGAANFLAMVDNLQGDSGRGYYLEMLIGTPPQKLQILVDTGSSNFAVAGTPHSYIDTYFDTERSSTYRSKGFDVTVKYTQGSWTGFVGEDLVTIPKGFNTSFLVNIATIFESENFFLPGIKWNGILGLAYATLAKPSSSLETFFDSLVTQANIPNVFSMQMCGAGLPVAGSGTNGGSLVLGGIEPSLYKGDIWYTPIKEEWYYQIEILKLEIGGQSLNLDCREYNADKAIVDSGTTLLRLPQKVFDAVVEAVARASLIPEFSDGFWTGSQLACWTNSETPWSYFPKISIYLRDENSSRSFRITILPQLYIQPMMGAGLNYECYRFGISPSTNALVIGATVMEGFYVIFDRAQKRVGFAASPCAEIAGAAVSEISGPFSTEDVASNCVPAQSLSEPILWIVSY

In the case of `CN1C(=N)N[C@@]2(CCOc3ccc(NC(=O)c4ccc(Cl)cn4)cc32)CS1(=O)=O` [Example 1a], the inhibitory constant (Ki) is 70 nM in assay [1] and 17 nM in assay [2].
For `COc1ccc(C(=O)Nc2ccc3c(c2)[C@]2(CCO3)CS(=O)(=O)N(C)C(=N)N2)nc1` [Example 1b] the same measures were 233 nM and 130 nM.
For `CN1C(=N)N[C@@]2(CCOc3ccc(NC(=O)C(F)F)cc32)CS1(=O)=O` [Example 1d] the same measures were 2280 nM and 728 nM.
The matching figures for `CN1C(=N)N[C@@]2(CCOc3ccc(NC(=O)c4ccn(C(F)F)n4)cc32)CS1(=O)=O` [Example 2p]: 20 nM and 3 nM.
As to `COc1ccc(C(=O)Nc2ccc3c(c2)[C@]2(COC3)CS(=O)(=O)N(C)C(=N)N2)nc1` [Example 3b], the inhibitory constant (Ki) was 1160 nM in assay [1] and 354 nM in assay [2].
For `CN1C(=N)N[C@@]2(CCCc3ccc(NC(=O)c4ccc(OCF)cn4)cc32)CS1(=O)=O` [Example 5g] the same measures were 77 nM and 33 nM.
The matching figures for `Cc1cc(C#N)cnc1C(=O)Nc1ccc2c(c1)[C@]1(CCC2)CS(=O)(=O)N(C)C(=N)N1` [Example 5q]: 9 nM and 17 nM.
The matching figures for `CN1C(=N)N[C@@]2(CCOc3ccc(NC(=O)c4cnc(OCC(F)(F)F)cn4)cc32)CS1(=O)=O` [Example 2g]: 70 nM and 699 nM.
As to `Cc1cc(C#N)cnc1C(=O)Nc1ccc2c(c1)[C@]1(CCO2)CS(=O)(=O)N(C)C(=N)N1` [Example 2k], the Ki in assay [1] was 15 nM; in assay [2], 26 nM.
For `CN1C(=N)N[C@@]2(CCCc3ccc(NC(=O)c4cn5cc(C#N)ccc5n4)cc32)CS1(=O)=O` [Example 5a] the same measures were 636 nM and 1130 nM.
For `COc1cnc(C(=O)Nc2ccc3c(c2)[C@]2(CCO3)CS(=O)(=O)N(C)C(=N)N2)c(C)c1` [Example 2i] the same measures were 168 nM and 29 nM.
The matching figures for `CN1C(=N)N[C@@]2(CCOc3ccc(NC(=O)c4ccc(OC(F)F)cn4)cc32)CS1(=O)=O` [Example 2u]: 44 nM and 166 nM.
In the case of `COc1ccc(C(=O)Nc2ccc3c(c2)[C@]2(CCC3)CS(=O)(=O)N(C)C(=N)N2)nc1` [Example 4b], the Ki was 228 nM in assay [1] and 67 nM in assay [2].
The matching figures for `CN1C(=N)N[C@@]2(CCCc3ccc(NC(=O)c4cnc(OCC(F)(F)F)cn4)cc32)CS1(=O)=O` [Example 5m]: 72 nM and 508 nM.
As for `COCC(=O)Nc1ccc2c(c1)[C@]1(CCC2)CS(=O)(=O)N(C)C(=N)N1` [Example 4c], the Ki is 2120 nM in assay [1] and 260 nM in assay [2].
For `CN1C(=N)N[C@@]2(CCCc3ccc(NC(=O)c4ncc(C(F)(F)F)cn4)cc32)CS1(=O)=O` [Example 5j] the same measures were 468 nM and 423 nM.
For `CN1C(=N)N[C@@]2(CCCc3ccc(NC(=O)c4ccc(F)cn4)cc32)CS1(=O)=O` [Example 5b] the same measures were 192 nM and 28 nM.
The matching figures for `CN1C(=N)N[C@@]2(CCOc3ccc(NC(=O)c4cc5ccccn5n4)cc32)CS1(=O)=O` [Example 2n]: 1490 nM and 337 nM.
Take `CN1C(=N)N[C@@]2(CCOc3ccc(NC(=O)c4ncc(C(F)(F)F)cn4)cc32)CS1(=O)=O` [Example 2d]: the Ki in assay [1] is 579 nM; in assay [2], 780 nM.
As to `C#CCOc1ccc(C(=O)Nc2ccc3c(c2)[C@]2(CCO3)CS(=O)(=O)N(C)C(=N)N2)nc1` [Example 2h], the inhibition constant Ki in assay [1] is 33 nM; in assay [2], 313 nM.
The matching figures for `CN1C(=N)N[C@@]2(COCc3ccc(NC(=O)c4ccc(Cl)cn4)cc32)CS1(=O)=O` [Example 3a]: 272 nM and 58 nM.
For `COc1cnc(C(=O)Nc2ccc3c(c2)[C@]2(CCC3)CS(=O)(=O)N(C)C(=N)N2)cn1` [Example 5r] the same measures were 144 nM and 177 nM.
For `CN1C(=N)N[C@@]2(CCCc3ccc(NC(=O)c4ccc(Cl)cn4)cc32)CS1(=O)=O` [Example 4a] the same measures were 58 nM and 15 nM.
As for `CN1C(=N)N[C@@]2(CCCc3ccc(NC(=O)c4cc5ccccn5n4)cc32)CS1(=O)=O` [Example 5u], the Ki was 1340 nM in assay [1] and 385 nM in assay [2].
For `Cc1nc(C(=O)Nc2ccc3c(c2)[C@]2(CCC3)CS(=O)(=O)N(C)C(=N)N2)co1` [Example 5h], the Ki was 108 nM in assay [1] and 11 nM in assay [2].
The matching figures for `CN1C(=N)N[C@@]2(CCCc3ccc(NC(=O)c4ncc(Cl)cc4F)cc32)CS1(=O)=O` [Example 5k]: 54 nM and 8 nM.
As for `COc1cnc(C(=O)Nc2ccc3c(c2)[C@]2(CCO3)CS(=O)(=O)N(C)C(=N)N2)cn1` [Example 2l], the Ki in assay [1] was 212 nM; in assay [2], 254 nM.
The matching figures for `CN1C(=N)N[C@@]2(CCOc3ccc(NC(=O)c4ccc(C(F)(F)F)cn4)cc32)CS1(=O)=O` [Example 2o]: 77 nM and 283 nM.
For `CN1C(=N)N[C@@]2(CCCc3ccc(NC(=O)c4cnc(C(F)(F)F)cn4)cc32)CS1(=O)=O` [Example 5s] the same measures were 253 nM and 685 nM.
The matching figures for `CN1C(=N)N[C@@]2(CCCc3ccc(NC(=O)c4ccc(OC(F)F)cn4)cc32)CS1(=O)=O` [Example 5c]: 59 nM and 126 nM.
As for `CN1C(=N)N[C@@]2(CCCc3ccc(NC(=O)c4ccn(C(F)F)n4)cc32)CS1(=O)=O` [Example 5w], the Ki in assay [1] is 20 nM; in assay [2] it was 3 nM.
The matching figures for `CN1C(=N)N[C@@]2(CCOc3ccc(NC(=O)c4ccc(F)cn4)cc32)CS1(=O)=O` [Example 2t]: 205 nM and 31 nM.
As to `CN1C(=N)N[C@@]2(CCOc3ccc(NC(=O)c4ncc(Cl)cc4F)cc32)CS1(=O)=O` [Example 2e], the Ki in assay [1] is 49 nM; in assay [2], 9 nM.
Consider `Cc1nc(C(=O)Nc2ccc3c(c2)[C@]2(CCO3)CS(=O)(=O)N(C)C(=N)N2)no1` [Example 2q], for which the Ki in assay [1] is 367 nM; in assay [2] it was 31 nM.
As for `COc1cnc(C(=O)Nc2ccc3c(c2)[C@]2(CCC3)CS(=O)(=O)N(C)C(=N)N2)c(C)n1` [Example 5p], the Ki in assay [1] was 224 nM; in assay [2], 123 nM.
The matching figures for `C#CCOc1cnc(C(=O)Nc2ccc3c(c2)[C@]2(CCC3)CS(=O)(=O)N(C)C(=N)N2)cn1` [Example 5l]: 11 nM and 77 nM.
As to `C#CCOc1ccc(C(=O)Nc2ccc3c(c2)[C@]2(CCC3)CS(=O)(=O)N(C)C(=N)N2)nc1` [Example 5n], the Ki is 42 nM in assay [1] and 221 nM in assay [2].
The matching figures for `Cc1nc(C(=O)Nc2ccc3c(c2)[C@]2(CCO3)CS(=O)(=O)N(C)C(=N)N2)co1` [Example 2b]: 142 nM and 20 nM.
With `CN1C(=N)N[C@@]2(CCOc3ccc(NC(=O)c4cn5cc(C#N)ccc5n4)cc32)CS1(=O)=O` [Example 2r], the Ki in assay [1] was 604 nM; in assay [2], 6910 nM.
`C#CCOc1cnc(C(=O)Nc2ccc3c(c2)[C@]2(CCO3)CS(=O)(=O)N(C)C(=N)N2)cn1` [Example 2f]: the values for the Ki in assay [1] and in assay [2] were 13 nM and 138 nM, respectively.
The matching figures for `CN1C(=N)N[C@@]2(CCCc3ccc(NC(=O)c4ccc(OC(F)(F)F)cn4)cc32)CS1(=O)=O` [Example 5d]: 55 nM and 219 nM.
The matching figures for `CN1C(=N)N[C@@]2(CCCc3ccc(NC(=O)c4cnsn4)cc32)CS1(=O)=O` [Example 5t]: 264 nM and 56 nM.
Take `Cc1nc(C(=O)Nc2ccc3c(c2)[C@]2(CCC3)CS(=O)(=O)N(C)C(=N)N2)no1` [Example 5f]: the Ki in assay [1] was 314 nM; in assay [2], 16 nM.
For `CN1C(=N)N[C@@]2(CCCc3ccc(NC(=O)c4cnc(OCCF)cn4)cc32)CS1(=O)=O` [Example 5e] the same measures were 257 nM and 487 nM.
